Measured values from ChEMBL document CHEMBL1155680, “A new bioactive triene aldehyde from the marine sponge Leucetta microraphis” (J Nat Prod, 2000).
Calls of active or inactive are those of the source. No cut-off for these calls is given here.

Test system: HeLa
Experiment: Growth inhibition of human HeLa S3 cells at 10 ug/ml after 72 hrs by crystal violet assay
Type: functional, cell-based

## CCCCCCCCCC/C=C\C/C=C\CC/C=C(\C)C=O
  Activity: Active
